Key:
skin-derived MSCs [1] = assay: Pharmacological agents added to proliferating skin-derived MSCs (morphology, survival); assay type: cell-based, mouse; conditions: plated three days in proliferation medium containing FGF, medium supplemented with agent
Description: FIG. 10 is a series of photographs showing the effect of various pharmacological agents on mouse skin-derived MSCs.
We tested the ability of pharmacological agents to alter this phenotype.

skin-derived MSCs [2] = assay: Endodermal marker expression of skin-derived MSCs by RT-PCR after plating with nicotinamide; assay type: cell-based; conditions: cells dissociated and plated in media supplemented with nicotinamide
Protocol: Skin-derived MSCs were cultured under standard proliferation conditions in the presence or absence of B-27 supplement. Differentiation was induced by plating cells in the presence of nicotinamide, and the resulting differentiated cells were analyzed by quantitative RT-PCR. […] Although cells proliferated in either the presence or the absence of B27 supplement can be induced to express endodermal markers, cells proliferated in B27 appear to express such markers to a higher degree.
Our recent discovery that MSCs maintain the potential to produce both neural and non-neural cell types has been accompanied by the discovery that non-neural stem cells such as bone marrow-derived stem cells (i.e., stromal cells or mesenchymal stem cells) also have the potential to produce a wide variety of neural and non-neural stem cells (Ferrari et al., Science 279:1528-1530, 1998; Gussoni et al., Nature 401:390-394, 1999; Peterson et al., Science 284:1168-1170, 1999; Pereira et al., Proc. Natl. Acad. Sci. USA 92:4857-4861, 1995; Prockop, Science 276:71-74, 1997; Kessler and Byrne, Annu. Rev. Physiol. 61:219-242, 1999; Pittenger et al., Science 284:143-147). […] After several days of co-culture the skin-derived stem cells were analyzed based on both morphology and on protein expression. […]

[3] = test system: skin-derived stem cells harvested from human foreskin; assay: Culture of human foreskin skin-derived stem cells in presence and absence of LIF; assay type: cell-based; conditions: proliferating non-adherent cultures with EGF and FGF2
Description: In contrast to human central nervous system derived stem cells, the survival and proliferation of human skin-derived stem cells is not dependent on LIF.
We cultured the cell suspension, as previously described, in non-adherent vessels in the presence of EGF and FGF2. […] The clusters are morphologically indistinguishable from skin-derived stem cells derived from rodent tissue. Skin-derived clusters are loosely compacted, and the cells can be readily dissociated manually without the use of proteases. Such characteristics appear to distinguish skin-derived clusters from CNS-derived neurospheres. […] Furthermore, we have currently passaged and maintained foreskin derived stem cells as proliferating cultures for greater than three months.

skin derived MSCs = assay: Neuronal differentiation of skin-derived MSCs plated in 5% serum with added agent, anti-neurofilament immunocytochemistry; assay type: cell-based; conditions: 5% serum plus agent, compared with serum alone
Protocol: Cells were dissociated and plated in the presence of either 5% FBS, 5% FBS+retinoic acid (RA), or 5% FBS+BMP7. Cells were analyzed immunocytochemically for expression of neurofilament M (NFM).
Skin derived MSCs were obtained and cultured as described in detail above. To induce differentiation, cells were plated in the presence of 5% serum supplemented with either retinoic acid or BMP-7. Neuronal differentiation was analyzed using a polyclonal anti-neurofilament antibody.

COc1cccc(-c2cc(=O)c3ccccc3o2)c1N [PD098059]
effect on phenotype of proliferating skin-derived MSCs (skin-derived MSCs [1]): caused proliferating cells to flatten and differentiate

C[S+]([O-])c1ccc(-c2nc(-c3ccncc3)c(-c3ccc(F)cc3)[nH]2)cc1 (centres unmarked) [SB203580]
effect on phenotype of proliferating skin-derived MSCs (skin-derived MSCs [1]): no observed effect

NC(=O)c1cccnc1 [nicotinamide]
expression of endodermal markers (GATA-4, HNF3α, Isl1, AFP, HNF3β, Ngn3, Pdx-1, Insulin) (skin-derived MSCs [2]): express markers of endodermal differentiation

LIF: cytokine added to culture medium (R&D Systems)
proliferation, differentiation or survival characteristics in presence and absence of LIF [3]: no significant differences

B1: BMP-7: therapeutic protein (growth factor) added to 5% serum to induce differentiation (protein, UniProt P18075 293-431, looked up)
Bone morphogenetic protein 7: STGSKQRSQNRSKTPKNQEALRMANVAENSSSDQRQACKKHELYVSFRDLGWQDWIIAPEGYAAYYCEGECAFPLNSYMNATNHAIVQTLVHFINPETVPKPCCAPTQLNAISVLYFDDSSNVILKKYRNMVVRACGCH
number and complexity of neurofilament positive cells (skin derived MSCs): enhances the number and complexity of neurofilament positive cells

Source: patent US8227245B2, “Multipotent stem cells from peripheral tissues and uses thereof” (McGill University, priority 2000, dated 2012)
